Results on five compounds are retold here after patent US20260217767A1, “NOVEL A4B7 THIOETHER PEPTIDE DIMER ANTAGONISTS” (Protagonist Therapeutics, Inc., priority 2014, published 2026).

For one data set, the target named is T1, α4β1 (Homo sapiens, UniProt P05556+P13612).
T1 construct: purchased R&D Systems 5668-A4
The data set is described as follows: α4β1-VCAM Competition ELISA. The settings on record: thioether peptide dimers, Table 7; read-out: ELISA A4B1. The format is binding. The protocol: α4β1-VCAM Competition ELISA
A Nunc MaxiSorp plate was coated with rh VCAM-1/CD106 Fc chimera (R&D #862-VC) at 400 ng/well in 50 ul per well in 1×PBS and incubated overnight at 4° C. The solution was removed by shaking and then blocked with 250 ul of 1% BSA in 1×PBS per well. The wells were then incubated at room temperature for 1 hr with shaking. Each well was then washed once with wash buffer (50 mM Tris-HCl pH7.6, 100 mM NaCL, 1 mM MnCl2 or MgCl2, 0.05% Tween-20). 25 ul of serial dilutions of peptides starting at 200 μM in assay buffer (Assay buffer: 50 mM Tris-HCl pH7.6, 100 mM NaCl, 1 mM MnCl2 or MgCl2, 0.05% Tween-20) was added to each well. Additionally, 25 μl of α4β1 (R&D Systems #5668-A4) was added to each well at a fixed concentration of 120 nM. The final peptide and α4β1 concentrations were 100 μM and 60 nM, respectively. The plates were then incubated at 37° C. for 2 hr. The solution was then removed by shaking and each well was washed three times with wash buffer. 50 ul of 9F10 antibody at 4 ug/ml (purified mouse anti-human CD49d, BD Bioscience Cat #555502) was then added to each well, and the plate was incubated at room temperature for Ihr with shaking. The solution was again removed by shaking, and each well was washed three times with wash buffer. 50 μl of peroxidase-conjugated AffiniPure Goat anti-mouse IgG (Jackson immune research cat #115-035-003) diluted in 1:5000 in assay buffer was added to each well. The plate was incubated at room temperature for 30 min with shaking. Each well was then washed 3 times with wash buffer. 100 ul of TMB was then added to each well and closely observe during developing time. The reaction was stepped with 2N H2SO4 and absorbance was read at 450 nm.

Data set [1] in a line: Simulated Intestinal Fluid (SIF) Stability Assay. It counts as in vitro ADME. The settings on record: pig, simulated intestinal fluid (SIF) with 1% porcine pancreatin, pH 6.5, porcine pancreatin, 37° C.; dimers, Table 7. A digest of the protocol: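 Peptide at 22 μM final was incubated at 37° C in blank FaSSIF pH 6.5 with 1% porcine pancreatin. Timed samples were quenched in acetonitrile/methanol/formic acid with internal standard and analysed by LC-MS/MS. Half-lives came from first-order exponential fits of percent remaining.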

Another data set has as its target Jurkat E6.1 cells (Homo sapiens, UniProt P05556+P13612). The data set is described as follows: α4β1-VCAM Cell Adhesion Assay. The format is cell-based. As to conditions: thioether peptide dimers, Table 7; read-out: Cell Adhesion A4B1. As to the method: α4β1-VCAM Cell Adhesion Assay
Jurkat E6.1 cells (Sigma #88042803) were cultured in RPMI 1640 HEPES medium (Invitrogen #22400-089) supplemented with 10% serum (Fetal Bovine Serum, Invitrogen #16140-071), 1 mM sodium pyruvate (Invitrogen #11360-070), 2 mM L-glutamine (Invitrogen #25030-081) and Penicillin-Streptomycin (Invitrogen #15140-122) at 100 units of penicillin and 100 μg of streptomycin per ml. The cells were washed two times in DMEM medium (ATCC #30-2002) supplemented with 0.1% BSA, 10 mM HEPES pH 7 and 1 mM MnCl2. The cells were re-suspended in supplemented DMEM medium at a density of 4×10^6 cells/ml.
A Nunc MaxiSorp plate was coated with rh VCAM-1/CD106 Fc chimera (R&D #862-VC) at 400 ng per well in 50 μl per well in 1×PBS and incubated at 4° C. overnight. The solution was then removed by shaking, blocked with 250 μl per well PBS containing 1% BSA, and incubated at 37° C. for 1 hr. The solution was removed by shaking. Peptides were diluted by serial dilution in a final volume of 50 μl per well (2× concentration). To each well, 50 μl of cells (200,000 cells) were added and the plate was incubated at 37° C., 5% CO2 for 30-45 min to allow cell adhesion. The wells were washed manually three times (100 μl per wash) with supplemented DMEM. After the final wash, 100 μl/well of supplemented DMEM and 10 ul/well of MTT reagent (ATTC cat #30-1010K) were added. The plate was incubated at 37° C., 5% CO2 for 2-3 hrs until a purple precipitate is visible. 100 ul of Detergent Reagent (ATTC cat #30-1010K) is added to each well. The plate was covered from the light, wrapped in Parafilm to prevent evaporation, and left overnight at room temperature in the dark. The plate was shaken for 5 min and the absorbance at 570 nm is measured. To calculate the dose response, the absorbance value of control wells not containing cells was subtracted from each test well.

The target of a further data set is T2, RPMI 8866 cells (Homo sapiens, UniProt P13612+P26010).
T2 sequence (P13612 34-1032): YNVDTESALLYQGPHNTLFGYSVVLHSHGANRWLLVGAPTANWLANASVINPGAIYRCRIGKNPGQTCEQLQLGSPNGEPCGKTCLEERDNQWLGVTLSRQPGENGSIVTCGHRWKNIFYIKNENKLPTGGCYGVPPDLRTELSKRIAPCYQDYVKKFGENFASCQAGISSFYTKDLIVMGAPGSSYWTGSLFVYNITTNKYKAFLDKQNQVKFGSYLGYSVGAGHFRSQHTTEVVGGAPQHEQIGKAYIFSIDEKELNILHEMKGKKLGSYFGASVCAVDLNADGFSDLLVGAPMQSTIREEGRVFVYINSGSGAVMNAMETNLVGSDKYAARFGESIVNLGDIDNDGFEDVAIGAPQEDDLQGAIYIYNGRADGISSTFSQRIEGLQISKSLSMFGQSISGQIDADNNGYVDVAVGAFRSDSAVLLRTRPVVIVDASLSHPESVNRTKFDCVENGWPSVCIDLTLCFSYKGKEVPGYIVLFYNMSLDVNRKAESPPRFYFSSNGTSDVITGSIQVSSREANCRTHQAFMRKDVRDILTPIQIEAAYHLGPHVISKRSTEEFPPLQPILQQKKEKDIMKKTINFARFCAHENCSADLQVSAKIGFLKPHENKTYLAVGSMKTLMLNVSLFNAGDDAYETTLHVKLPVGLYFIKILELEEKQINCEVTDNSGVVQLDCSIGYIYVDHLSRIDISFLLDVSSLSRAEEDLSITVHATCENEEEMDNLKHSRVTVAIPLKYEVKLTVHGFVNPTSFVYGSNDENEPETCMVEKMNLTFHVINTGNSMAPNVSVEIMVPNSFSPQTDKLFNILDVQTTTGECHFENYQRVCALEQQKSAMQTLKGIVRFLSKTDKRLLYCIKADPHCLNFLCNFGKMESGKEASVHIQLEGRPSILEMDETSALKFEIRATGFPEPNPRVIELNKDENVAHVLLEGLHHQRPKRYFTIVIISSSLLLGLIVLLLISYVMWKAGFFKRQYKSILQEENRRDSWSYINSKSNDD
T2 sequence (P26010 20-798): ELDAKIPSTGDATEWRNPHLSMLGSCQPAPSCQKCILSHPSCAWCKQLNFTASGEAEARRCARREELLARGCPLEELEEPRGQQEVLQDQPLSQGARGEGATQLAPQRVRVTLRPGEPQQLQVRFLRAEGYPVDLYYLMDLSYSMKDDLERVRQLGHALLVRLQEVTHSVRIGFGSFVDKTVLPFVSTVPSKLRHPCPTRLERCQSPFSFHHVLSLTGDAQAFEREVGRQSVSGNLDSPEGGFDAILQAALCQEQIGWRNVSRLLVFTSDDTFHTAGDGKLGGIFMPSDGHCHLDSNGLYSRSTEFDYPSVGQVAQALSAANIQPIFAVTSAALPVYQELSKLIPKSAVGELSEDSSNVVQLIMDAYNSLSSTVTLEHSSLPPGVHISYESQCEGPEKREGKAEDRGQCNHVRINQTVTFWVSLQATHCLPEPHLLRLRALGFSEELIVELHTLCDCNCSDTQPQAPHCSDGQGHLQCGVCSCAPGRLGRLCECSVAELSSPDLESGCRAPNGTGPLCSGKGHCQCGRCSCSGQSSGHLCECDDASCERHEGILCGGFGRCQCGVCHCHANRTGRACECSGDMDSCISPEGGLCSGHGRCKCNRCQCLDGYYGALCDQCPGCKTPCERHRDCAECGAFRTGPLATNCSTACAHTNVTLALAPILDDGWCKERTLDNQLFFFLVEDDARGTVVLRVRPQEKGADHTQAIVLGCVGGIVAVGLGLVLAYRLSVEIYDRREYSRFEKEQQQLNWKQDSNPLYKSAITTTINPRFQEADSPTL
Put plainly: α4β7-MAdCAM Cell Adhesion Assay. The format is cell-based. The settings on record: thioether peptide dimers, Table 7; read-out: Cell-Adhesion A4B7. The procedure, abridged:
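RPMI 8866 cells (200,000/well) in DMEM with 1 mM MnCl2 and 0.1% BSA were allowed to adhere 30-45 min at 37° C to plates coated with rh MAdCAM-1/Fc (200 ng/well) in presence of serially diluted peptide. After washing, bound cells quantified by MTT, absorbance 570 nm, cell-free background subtracted.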

Where a SMILES comes first, the peptide text is derived from it.

Chain of Jurkat E6.1 cells (P05556 21-798, one chain of several): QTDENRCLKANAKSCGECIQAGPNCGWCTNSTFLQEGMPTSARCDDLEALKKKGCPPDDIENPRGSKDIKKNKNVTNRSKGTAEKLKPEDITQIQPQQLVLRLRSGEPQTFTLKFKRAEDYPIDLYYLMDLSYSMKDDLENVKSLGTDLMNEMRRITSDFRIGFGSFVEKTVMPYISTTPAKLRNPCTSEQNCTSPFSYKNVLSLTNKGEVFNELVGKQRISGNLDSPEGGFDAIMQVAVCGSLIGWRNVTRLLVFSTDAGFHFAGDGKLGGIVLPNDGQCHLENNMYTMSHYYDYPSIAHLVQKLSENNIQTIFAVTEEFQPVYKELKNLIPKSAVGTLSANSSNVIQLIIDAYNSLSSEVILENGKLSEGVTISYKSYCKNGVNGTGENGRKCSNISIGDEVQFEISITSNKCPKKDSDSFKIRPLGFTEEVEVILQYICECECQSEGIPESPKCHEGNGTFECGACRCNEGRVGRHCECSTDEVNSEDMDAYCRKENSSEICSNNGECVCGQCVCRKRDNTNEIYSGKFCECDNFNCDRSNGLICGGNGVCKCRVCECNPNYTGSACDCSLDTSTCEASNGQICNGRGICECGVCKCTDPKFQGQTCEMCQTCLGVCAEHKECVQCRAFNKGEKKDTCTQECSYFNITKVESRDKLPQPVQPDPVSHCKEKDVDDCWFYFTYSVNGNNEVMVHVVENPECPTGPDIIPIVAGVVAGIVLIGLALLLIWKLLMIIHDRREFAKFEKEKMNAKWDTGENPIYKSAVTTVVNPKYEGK
T1 sequence (P05556 21-728 limits assumed, one chain of several): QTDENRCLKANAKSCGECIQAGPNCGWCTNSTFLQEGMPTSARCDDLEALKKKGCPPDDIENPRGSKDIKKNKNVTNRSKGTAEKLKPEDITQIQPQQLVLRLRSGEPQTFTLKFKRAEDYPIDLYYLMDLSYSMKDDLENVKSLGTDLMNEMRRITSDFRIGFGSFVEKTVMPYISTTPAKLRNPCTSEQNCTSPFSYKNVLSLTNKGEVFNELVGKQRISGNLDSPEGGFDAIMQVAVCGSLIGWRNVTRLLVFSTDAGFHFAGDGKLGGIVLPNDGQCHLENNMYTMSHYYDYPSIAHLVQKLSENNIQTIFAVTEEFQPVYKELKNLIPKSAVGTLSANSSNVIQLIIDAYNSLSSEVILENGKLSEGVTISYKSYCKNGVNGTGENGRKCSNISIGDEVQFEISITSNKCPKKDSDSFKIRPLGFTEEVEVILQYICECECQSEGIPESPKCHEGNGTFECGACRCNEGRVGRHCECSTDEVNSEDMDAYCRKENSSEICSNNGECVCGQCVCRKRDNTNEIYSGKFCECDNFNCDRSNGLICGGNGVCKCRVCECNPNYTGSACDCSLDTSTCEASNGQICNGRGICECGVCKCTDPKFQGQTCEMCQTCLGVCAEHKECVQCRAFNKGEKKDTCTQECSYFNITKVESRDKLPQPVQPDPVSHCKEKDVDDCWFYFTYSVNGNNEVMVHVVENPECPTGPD

Turning to `CC(C)C[C@@H]1NC(=O)[C@H]([C@@H](C)O)NC(=O)[C@H](CC(=O)O)NC(=O)[C@H](CO)NC(=O)[C@H](CCCNC(=N)N)N(C)C(=O)c2ccccc2CSC(C)(C)[C@@H](C(=O)N[C@@H](Cc2c[nH]c3ccccc23)C(=O)N[C@@H](CCC(=O)O)CC(=O)N[C@H](CCCCN)C(N)=O)NC1=O` [compound 151] (HELM PEPTIDE1{[meR].S.D.T.L.[Pen].W.[O=C(O)CC[C@@H](CC(=O)[*:2])N[*:1]].[dK].[am]}|CHEM1{[O=C(c1ccccc1C[*:2])[*:1]]}$PEPTIDE1,CHEM1,1:R1-1:R1|PEPTIDE1,CHEM1,6:R3-1:R2$$$V2.0), at α4β1, the IC50 was 0.025 to 0.1 µM. The same compound showed a half-life at 22 μM in data set [1] of more than 3 h.

As to `CC(C)C[C@@H]1NC(=O)[C@H]([C@@H](C)O)NC(=O)[C@H](CC(=O)O)NC(=O)[C@H](CO)NC(=O)[C@H](CCCNC(=N)N)N(C)C(=O)c2ccccc2CSC(C)(C)[C@@H](C(=O)N[C@@H](Cc2ccc3ccccc3c2)C(=O)N[C@@H](CCC(=O)O)CC(=O)N[C@H](CCCCN)C(N)=O)NC1=O` [compound 161], the IC50 is 0.025 to 0.1 µM on α4β1 and more than 100 µM at Jurkat E6.1 cells. In data set [1], this compound registered a half-life at 22 μM of more than 3 h.

In the case of `CC(C)C[C@@H]1NC(=O)[C@H]([C@@H](C)O)NC(=O)[C@H](CC(=O)O)NC(=O)[C@H](CO)NC(=O)[C@H](CCCNC(=N)N)N(C)C(=O)c2ccccc2CSC(C)(C)[C@@H](C(=O)N[C@@H](Cc2ccc(O)cc2)C(=O)N[C@@H](CCC(=O)O)C(=O)N[C@H](CCCCN)C(N)=O)NC1=O` [compound 168] (HELM PEPTIDE1{[meR].S.D.T.L.[Pen].Y.E.[dK].[am]}|CHEM1{[O=C(c1ccccc1C[*:2])[*:1]]}$PEPTIDE1,CHEM1,1:R1-1:R1|PEPTIDE1,CHEM1,6:R3-1:R2$$$V2.0), the IC50 at α4β1 is 0.025 to 0.1 µM; at Jurkat E6.1 cells, more than 100 µM.

`CC(C)C[C@@H]1NC(=O)[C@H]([C@@H](C)O)NC(=O)[C@H](CC(=O)O)NC(=O)[C@H](CO)NC(=O)[C@H](CCCNC(=N)N)N(C)C(=O)c2ccccc2CSC(C)(C)[C@@H](C(=O)N[C@@H](Cc2c[nH]c3ccccc23)C(=O)N[C@H](CCC(=O)O)C(=O)N[C@@H](CO)C(=O)N[C@H](CCCCN)C(N)=O)NC1=O` [compound 191] (HELM PEPTIDE1{[meR].S.D.T.L.[Pen].W.[dE].S.[dK].[am]}|CHEM1{[O=C(c1ccccc1C[*:2])[*:1]]}$PEPTIDE1,CHEM1,1:R1-1:R1|PEPTIDE1,CHEM1,6:R3-1:R2$$$V2.0): the results for the IC50 at Jurkat E6.1 cells and at RPMI 8866 cells were more than 100 µM and less than 0.025 µM, respectively.

For `CC(C)C[C@@H]1NC(=O)[C@H]([C@@H](C)O)NC(=O)[C@H](CC(=O)O)NC(=O)[C@H](CO)NC(=O)[C@H](CCCNC(=N)N)N(C)C(=O)c2ccccc2CSC(C)(C)[C@@H](C(=O)N[C@@H](Cc2c[nH]c3ccccc23)C(=O)N[C@H](CCC(=O)O)C(=O)N[C@@H](CCC(=O)O)C(=O)N[C@H](CCCCN)C(N)=O)NC1=O` [compound 194] (HELM PEPTIDE1{[meR].S.D.T.L.[Pen].W.[dE].E.[dK].[am]}|CHEM1{[O=C(c1ccccc1C[*:2])[*:1]]}$PEPTIDE1,CHEM1,1:R1-1:R1|PEPTIDE1,CHEM1,6:R3-1:R2$$$V2.0), the IC50 was 0.1 to 1 µM at α4β1 and less than 0.025 µM at RPMI 8866 cells.
